From patent US20260234173A1, “STRUCTURED MOLECULAR VECTORS FOR ANTI-INFLAMMATORY COMPOUNDS AND USES THEREOF” (Universite Claude Bernard Lyon 1, priority 2019, published 2026) come the findings set out here.

For experiment [1], the system named is hippocampal LTP in healthy rats. As to the kind of experiment: Hippocampal LTP in slices from healthy rats treated in vivo. Also noted: species or system rat. The following applies: 2 mg/kg i.p. each day during 7 days (P21-P27). How it is done:
At P28-38, Sprague-Dawley rats were anesthetized with isoflurane, the forebrain was removed and placed in ice cold standard artificial cerebrospinal fluid (ACSF), consisting of (in mM): 124 NaCl, 5 KCl, 1.25 Na2HPO4, 2 MgSO4, 2 CaCl2), 26 NaHCO3, supplemented with 10 D-glucose, and bubbled with 95% O2 and 5% CO2. Hippocampal transverse slices were cut into 350 μm thick sections, using a vibratome (Leica VT1000S), and incubated in ACSF at room temperature for at least 1 h, before the transfer to the recording chamber. The ACSF used for perfusion was supplemented with picrotoxin (100 μM; Sigma-Aldrich), to block GABA-A receptors and therefore to facilitate the induction of NMDA receptors-dependent Long-Term Potentiation (LTP). […] Series resistance was continually monitored, and experiments were discarded if it changed by >20%.
Capillary glass pipettes filled with ACSF and connected to an Iso-Flex stimulus isolation unit (A.M.P.I.) were placed in stratum radiatum, to evoke excitatory postsynaptic potentials (EPSPs) in CA1 pyramidal neurons. […] LTP was induced by the theta burst pairing (TBP) protocol, which consisted of EPSPs paired with single back-propagating action potentials (b-APs), timed so that the b-AP (~15 ms delay) occurred at the peak of the EPSPs, as measured in the soma. […]

The test system of experiment [2] is CA1 pyramidal neurons in hippocampal slices from rats subjected to Pilo-SE. Briefly: Hippocampal LTP in slices from Pilo-SE rats, compound perfused in the bath (ex vivo). It is filed as cell-based, rat. The following applies: slices 1-2 weeks post Pilo-SE. As for the experimental part: (§1) In this experiment we used male Sprague-Dawley rats (ENVIGO, Netherlands). Pups were received at 14 day-old (postnatal day 14 (P14)) with their foster mother, and were maintained in groups of 10 in plastic cages (405 mm×255 mm×197 mm) with free access to food and water. All animal procedures are in accordance with the guidelines of the Animal Care and Use Committee of the University Claude Bernard Lyon 1.
(§2) All injected solutions were prepared in sterile saline (0.9% w/v). At weaning (postnatal day 20 (P20)), Sprague-Dawley male rat pups were first injected i.p. with lithium chloride (127 mg/Kg; Sigma-Aldrich), to decrease the dose of pilocarpine needed to trigger Status Epilepticus (SE). Scopolamine methylnitrate (1 mg/Kg; Sigma-Aldrich) was injected s.c. 18 h later, to alleviate peripheral cholinergic adverse side effects. Pilocarpine hydrochloride (25 mg/Kg; Sigma-Aldrich) was injected i.p. 30 min later, to induce SE. […] The rats were placed on a heated pad, under continuous observation, until they recovered from sedation. Following recovery, the rats were returned to the nursing mother until P23. Control rats only received saline injections. All rats were then housed in groups of 10 and weighed daily, during the 5 following days, to control for food intake, and then twice weekly until the end of experiment (three weeks post SE).
(§3) At P28-38, Sprague-Dawley rats were anesthetized with isoflurane, the forebrain was removed and placed in ice cold standard artificial cerebrospinal fluid (ACSF), consisting of (in mM): 124 NaCl, 5 KCl, 1.25 Na2HPO4, 2 MgSO4, 2 CaCl2), 26 NaHCO3, supplemented with 10 D-glucose, and bubbled with 95% O2 and 5% CO2. Hippocampal transverse slices were cut into 350 μm thick sections, using a vibratome (Leica VT1000S), and incubated in ACSF at room temperature for at least 1 h, before the transfer to the recording chamber. The ACSF used for perfusion was supplemented with picrotoxin (100 μM; Sigma-Aldrich), to block GABA-A receptors and therefore to facilitate the induction of NMDA receptors-dependent Long-Term Potentiation (LTP). CA1 pyramidal cells were visualized with a Zeiss Axioskop 2, equipped with a X40 objective, using infrared video microscopy and differential interference contrast optics. Whole-cell recordings from pyramidal neurons in the CA1 layer were obtained with patch electrodes, which were filled with a solution containing (in mM): 120 potassium gluconate, 20 KCl, 0.2 EGTA, 2 MgCl2, 10 HEPES, 4 Na2ATP, 0.3 Tris-GTP and 14 mM phosphocreatine (pH 7.3, adjusted with KOH). Drugs were applied in the bath of the hippocampal slices. Electrode resistances ranged from 3-5 MΩ. Series resistance was continually monitored, and experiments were discarded if it changed by >20%.
Capillary glass pipettes filled with ACSF and connected to an Iso-Flex stimulus isolation unit (A.M.P.I.) were placed in stratum radiatum, to evoke excitatory postsynaptic potentials (EPSPs) in CA1 pyramidal neurons. Cells were held at −70 mV to record EPSPs, and the stimulation strength was set to evoke EPSPs between 5-8 mV. LTP was induced by the theta burst pairing (TBP) protocol, which consisted of EPSPs paired with single back-propagating action potentials (b-APs), timed so that the b-AP (~15 ms delay) occurred at the peak of the EPSPs, as measured in the soma. A single burst contained five pairs delivered at 100 Hz and ten bursts were delivered at 5 Hz per sweep. Three sweeps were delivered at 10 s intervals for a total of 30 bursts (150 b-AP-EPSP pairs). […]

Experiment [3] concerns LPS-induced neuroinflammation (hippocampus and neocortex). Briefly: LPS-induced neuroinflammation in vivo in rats (RT-qPCR, Neuroinflammation Index). Also noted: species or system rat. The following applies: 6 h post-LPS.
Experiment [4] is described as follows: Recovery of weight loss in rats after status epilepticus. It is filed as in vivo, rat. The following applies: 10 mg/Kg i.p. every day for 7 days after Pilo-SE. As for the experimental part:
Rats were subjected to pilocarpine-induced status epilepticus at day 0) and were administered (10 mg/Kg, i.p) Synaptamide phosphonate (SynPn) every day for 7 days. The weight of animals was daily measured. Results are described in FIG. 20. Results are expressed as the percentage of weight of animals (10-15 animals/group) at day 0. Statistical differences between Controls/SE+NaCl (*: p<0.05, ***: p<0.001) and between SE+NaCl/SE+SynPn (#: p<0.05).

Experiment [5] deals with hippocampal LTP in rats subjected to Pilo-SE. Briefly: Hippocampal LTP in slices from Pilo-SE rats treated in vivo (i.p. or per os). Also noted: species or system rat. The following applies: 1 h after cessation of SE then daily. As for the experimental part:
as §1, §2, §3
Capillary glass pipettes filled with ACSF and connected to an Iso-Flex stimulus isolation unit (A.M.P.I.) were placed in stratum radiatum, to evoke excitatory postsynaptic potentials (EPSPs) in CA1 pyramidal neurons. Cells were held at −70 mV to record EPSPs, and the stimulation strength was set to evoke EPSPs between 5-8 mV. LTP was induced by the theta burst pairing (TBP) protocol, which consisted of EPSPs paired with single back-propagating action potentials (b-APs), timed so that the b-AP (~15 ms delay) occurred at the peak of the EPSPs, as measured in the soma. A single burst contained five pairs delivered at 100 Hz and ten bursts were delivered at 5 Hz per sweep. Three sweeps were delivered at 10 s intervals for a total of 30 bursts (150 b-AP-EPSP pairs). The b-APs were elicited by direct somatic current injection (1 ms, 1-2 nA). This induction protocol was always applied within 20 min of achieving whole-cell configuration, to avoid “wash-out” of LTP.

Consider `CCC=CCC=CCC=CCC=CCC=CCC=CCCC(=O)NCCP(=O)(O)O` [synaptamide phosphonate], for which the “LTP magnitude (EPSP amplitude, % of baseline)” value in experiment [1] was 212.11±12.9%; in experiment [2] (bath application 100 nM), 132.2±5.01%; in experiment [2] (bath application 400 nM), 159.9±10.7%; in experiment [5] (2 mg/kg i.p.), 183.07±9.02%; in experiment [5] (5 mg/kg i.p.) it was 162.4±11.9%; in experiment [5] (10 mg/kg i.p.), 162.78±12.23%. The “LTP magnitude (EPSP amplitude, % of baseline)” value in experiment [5] (10 mg/kg per os) is listed as 110.7±4.7%; in experiment [5] (30 mg/kg per os), 146.16±10%; in experiment [5] (100 mg/kg per os), 162.6±9.2%. Besides, the “LPS-mediated induction of transcripts encoding neuroinflammatory markers” value in experiment [3] (2 mg/Kg synaptamide equivalent i.p. one minute after LPS 1 mg/Kg, 21-day-old rats) is listed as “partially prevent”. In experiment [3] (2 mg/Kg synaptamide equivalent i.p. one minute after LPS), the “reduction of the Neuroinflammatory Index measured both in the hippocampus and the neocortex” value is reported as ~ 70%. In addition, the “recovery of weight loss after SE” value in experiment [4] is listed as “facilitates the recovery of weight loss”.
